Data set [1] concerns Plasma. As to the kind of experiment: Anticoagulant activity in pooled human plasma assessed as reduction in ellagic acid induced thrombin generation using Z-GGR-AMC as fluorogenic substrate by calibrated automated thrombogram analysis. Type of data set: functional, cell-free.
The target of the next data set is T1, Coagulation factor VII (Homo sapiens, UniProt P08709).
T1 sequence (P08709 whole entry): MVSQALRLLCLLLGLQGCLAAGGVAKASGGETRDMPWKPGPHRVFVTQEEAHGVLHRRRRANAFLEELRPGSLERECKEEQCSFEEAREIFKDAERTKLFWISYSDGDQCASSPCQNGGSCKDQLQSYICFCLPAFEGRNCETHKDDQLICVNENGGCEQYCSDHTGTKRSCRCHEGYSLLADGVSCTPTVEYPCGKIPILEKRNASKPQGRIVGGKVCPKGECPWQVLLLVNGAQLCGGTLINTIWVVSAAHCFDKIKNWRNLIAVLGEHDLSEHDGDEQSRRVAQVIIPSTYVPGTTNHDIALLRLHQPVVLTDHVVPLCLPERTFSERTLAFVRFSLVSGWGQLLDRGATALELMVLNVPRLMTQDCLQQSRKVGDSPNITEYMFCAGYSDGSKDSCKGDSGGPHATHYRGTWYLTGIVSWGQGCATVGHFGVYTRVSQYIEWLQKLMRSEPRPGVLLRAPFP
Briefly: Inhibition of factor 7a (unknown origin).

For data set [2], the target named is T2, Coagulation factor XII (Homo sapiens, UniProt P00748).
T2 sequence (P00748 whole entry): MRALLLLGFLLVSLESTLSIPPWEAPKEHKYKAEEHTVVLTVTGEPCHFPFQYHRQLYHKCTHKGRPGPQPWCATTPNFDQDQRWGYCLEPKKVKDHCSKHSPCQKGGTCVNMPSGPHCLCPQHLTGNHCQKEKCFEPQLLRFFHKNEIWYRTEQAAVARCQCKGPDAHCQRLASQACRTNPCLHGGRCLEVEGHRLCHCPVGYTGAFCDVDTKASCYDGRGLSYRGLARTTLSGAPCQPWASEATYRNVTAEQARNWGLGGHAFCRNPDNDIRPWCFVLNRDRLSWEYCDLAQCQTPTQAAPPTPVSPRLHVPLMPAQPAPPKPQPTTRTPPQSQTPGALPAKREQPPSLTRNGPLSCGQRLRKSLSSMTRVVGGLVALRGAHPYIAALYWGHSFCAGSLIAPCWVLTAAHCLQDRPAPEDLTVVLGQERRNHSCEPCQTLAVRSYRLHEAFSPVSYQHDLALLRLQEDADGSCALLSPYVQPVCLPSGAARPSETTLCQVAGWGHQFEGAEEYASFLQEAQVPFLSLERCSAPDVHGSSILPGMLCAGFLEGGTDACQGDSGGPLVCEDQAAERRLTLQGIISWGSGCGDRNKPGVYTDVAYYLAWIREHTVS
As to the kind of experiment: Inhibition of human factor 12a using H-D-Pro-Phe-Arg-p-nitroanilide as chromogenic substrate assessed as liberation of p-nitroaniline in presence of BSA measured every 5 mins for 60 min by multimode plate reader analysis.

Data set [3] concerns the target T3, Coagulation factor XII (Homo sapiens) (UniProt P00748).
T3 sequence (whole entry): T2 sequence (P00748 whole entry)
Briefly: Inhibition of human factor 12a activation in citrated pooled human plasma assessed as inhibition of bradykinin release incubated for 10 mins followed by kaolin addition and measured after 15 mins by ELISA. Particulars: dose 1-200 µM, time 25.0 min. Type of data set: cell-free.

Data set [4] is described as follows: Stability in pooled human plasma measured upto 24 hrs by UPLC-MS analysis. Type of data set: ADME, cell-free.
Data set [5] relates to Plasma. Briefly: Anticoagulant activity in pooled human plasma assessed as prolongation of prothrombin time at 12.5 uM incubated for 7 mins. Type of data set: functional, cell-free.
For data set [6], the system named is Plasma. As to the kind of experiment: Anticoagulant activity in FXII-deficient human plasma assessed as effect on total thrombin generation using Z-GGR-AMC as fluorogenic substrate at 8 uM by calibrated automated thrombogram analysis. Type of data set: functional, cell-free.
The target in data set [7] is T2, Coagulation factor XII. Briefly: Inhibition of human factor 12a using H-D-Pro-Phe-Arg-p-nitroanilide as chromogenic substrate assessed as liberation of p-nitroaniline measured every 5 mins for 60 min by multimode plate reader analysis.
The next data set concerns the target Trypsin (Homo sapiens, UniProt P07477+P07478+P35030). As to the kind of experiment: Inhibition of trypsin (unknown origin). Type of data set: protein assay.
In the next data set the target is Plasminogen (Homo sapiens, UniProt P00747). As to the kind of experiment: Inhibition of plasmin (unknown origin).
Chain of Plasminogen (P00747 97-580 limits assumed): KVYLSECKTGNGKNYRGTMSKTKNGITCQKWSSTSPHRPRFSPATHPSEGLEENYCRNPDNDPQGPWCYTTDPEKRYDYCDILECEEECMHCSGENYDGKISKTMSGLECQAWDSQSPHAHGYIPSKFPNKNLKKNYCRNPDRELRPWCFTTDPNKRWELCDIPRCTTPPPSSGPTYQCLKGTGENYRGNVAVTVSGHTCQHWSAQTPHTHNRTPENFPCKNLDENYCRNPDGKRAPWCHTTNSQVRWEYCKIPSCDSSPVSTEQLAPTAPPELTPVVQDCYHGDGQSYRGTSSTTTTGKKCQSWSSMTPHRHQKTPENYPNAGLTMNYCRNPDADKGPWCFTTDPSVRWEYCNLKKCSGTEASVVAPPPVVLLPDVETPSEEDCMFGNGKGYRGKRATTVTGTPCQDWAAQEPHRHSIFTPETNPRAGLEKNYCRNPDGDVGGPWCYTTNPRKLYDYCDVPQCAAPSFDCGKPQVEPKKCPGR
Chain of Plasminogen (P00747 581-810 limits assumed): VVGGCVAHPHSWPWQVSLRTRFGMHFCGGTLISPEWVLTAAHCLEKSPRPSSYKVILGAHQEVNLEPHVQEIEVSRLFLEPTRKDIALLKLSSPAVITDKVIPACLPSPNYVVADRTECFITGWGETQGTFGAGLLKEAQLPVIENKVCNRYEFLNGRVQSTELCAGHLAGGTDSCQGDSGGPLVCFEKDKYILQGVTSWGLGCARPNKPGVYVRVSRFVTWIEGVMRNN
Another data set deals with Plasma kallikrein (Homo sapiens, UniProt P03952). Briefly: Inhibition of plasma kallikrein (unknown origin). Type of data set: cell-free.
Chain of Plasma kallikrein (P03952 20-390 limits assumed): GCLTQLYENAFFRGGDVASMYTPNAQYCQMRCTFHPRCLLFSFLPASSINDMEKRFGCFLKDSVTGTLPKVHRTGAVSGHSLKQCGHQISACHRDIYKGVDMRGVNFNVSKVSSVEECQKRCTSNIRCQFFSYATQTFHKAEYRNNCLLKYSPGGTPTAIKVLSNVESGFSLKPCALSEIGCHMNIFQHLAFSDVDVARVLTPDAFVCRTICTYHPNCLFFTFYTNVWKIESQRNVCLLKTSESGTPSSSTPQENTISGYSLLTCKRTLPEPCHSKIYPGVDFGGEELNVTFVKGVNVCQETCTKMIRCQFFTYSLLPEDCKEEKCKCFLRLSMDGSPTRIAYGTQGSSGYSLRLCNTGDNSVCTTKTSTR
Chain of Plasma kallikrein (P03952 391-638 limits assumed): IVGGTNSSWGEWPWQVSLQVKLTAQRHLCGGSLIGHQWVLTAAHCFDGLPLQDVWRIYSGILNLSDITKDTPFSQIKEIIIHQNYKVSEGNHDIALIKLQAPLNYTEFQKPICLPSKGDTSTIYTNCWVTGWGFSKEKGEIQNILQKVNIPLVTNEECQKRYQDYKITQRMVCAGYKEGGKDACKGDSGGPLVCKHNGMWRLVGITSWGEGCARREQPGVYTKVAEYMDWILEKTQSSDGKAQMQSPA
Data set [8] deals with Plasma. Briefly: Anticoagulant activity in pooled human plasma assessed as prolongation of activated partial thromboplastin time at 1.25 uM incubated for 7 mins. Type of data set: functional, cell-free.
The target of the next data set is Coagulation factor X (Homo sapiens, UniProt P00742). Briefly: Inhibition of human factor 10a using methoxycarbonyl-D-Nle-Gly-Arg-pNA as substrate measured after 60 mins by microplate reader analysis.
Chain of Coagulation factor X (P00742 41-179 limits assumed): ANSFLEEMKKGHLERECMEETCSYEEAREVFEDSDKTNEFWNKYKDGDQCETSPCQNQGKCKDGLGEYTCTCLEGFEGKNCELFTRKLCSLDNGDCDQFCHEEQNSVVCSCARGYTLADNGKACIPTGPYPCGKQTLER
Chain of Coagulation factor X (P00742 235-488 limits assumed): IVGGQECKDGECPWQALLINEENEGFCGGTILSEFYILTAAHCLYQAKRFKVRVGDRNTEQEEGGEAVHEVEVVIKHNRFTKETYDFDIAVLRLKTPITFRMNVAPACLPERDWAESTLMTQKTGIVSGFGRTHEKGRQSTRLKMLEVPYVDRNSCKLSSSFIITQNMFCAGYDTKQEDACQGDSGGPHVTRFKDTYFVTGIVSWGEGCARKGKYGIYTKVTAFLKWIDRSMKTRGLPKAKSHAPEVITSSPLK
The test system of data set [9] is Plasma. Briefly: Anticoagulant activity in pooled human plasma assessed as reduction in ellagic acid induced thrombin generation using Z-GGR-AMC as fluorogenic substrate at 4 uM by calibrated automated thrombogram analysis. Type of data set: functional, cell-free.
For data set [10], the target named is Urokinase-type plasminogen activator (Homo sapiens, UniProt P00749). Briefly: Inhibition of Urokinase-type plasminogen activator (unknown origin).
The next data set is filed under the species Homo sapiens. Briefly: Selectivity index, ratio of IC50 for inhibition of human factor 12a using H-D-Pro-Phe-Arg-p-nitroanilide as chromogenic substrate to IC50 for inhibition of human factor 10a using methoxycarbonyl-D-Nle-Gly-Arg-pNA as substrate.
The subject of data set [11] is Plasma. Briefly: Anticoagulant activity in pooled human plasma assessed as prolongation of activated partial thromboplastin time at 12.5 uM incubated for 7 mins. Type of data set: functional, cell-free.
For data set [12], the target named is T3, Coagulation factor XII (Homo sapiens). Briefly: Inhibition of human factor 12a using H-D-Pro-Phe-Arg-p-nitroanilide as chromogenic substrate assessed as liberation of p-nitroaniline at […] measured every 5 mins for 60 min by multimode plate reader analysis.
Data set [13] shares this target. Briefly: Inhibition of human factor 12a using H-D-Pro-Phe-Arg-p-nitroanilide as chromogenic substrate assessed as liberation of p-nitroaniline at 2 mM measured every 5 mins for 60 min by multimode plate reader analysis.

Active and inactive are the calls of the source. The rule behind the calls is not given here. Where a SMILES comes first, the peptide text is derived from it. Bridges are numbered along the chain shown (N, C = ends). Where only a bound is given, the exact number is not on record here.

`CC(C)C[C@@H]1NC(=O)[C@H](Cc2ccc(O)cc2)NC(=O)CSC[C@@H](C(N)=O)NC(=O)CNC(=O)CNC(=O)[C@H](CCCNC(=N)N)NC(=O)[C@H](CC(=O)O)NC(=O)[C@H](CCCCN)NC(=O)[C@@H]2CCCN2C(=O)[C@H](CCCNC(=N)N)NC(=O)[C@H](Cc2ccccc2)NC(=O)[C@H](CCCNC(=N)N)NC1=O`: the EC50 with Plasma [1] was 0.7 µM. The IC50 at Coagulation factor VII is greater than 100 µM; on Coagulation factor XII [2], 0.061 µM; on Coagulation factor XII [7], 0.062 µM; against Trypsin, greater than 31 µM; against Plasminogen it was greater than 100 µM; against Plasma kallikrein it was greater than 100 µM. Moreover, the IC50 is 59 µM at Coagulation factor X and greater than 100 µM in [10]. In addition, the inhibition entry in data set [3] was “Dose-Dependent Effect”. The Stability entry in [4] is “Stable”. Further, the result in the data set on Plasma [5], in the data set with Plasma [8], in the data set on Plasma [9] and in the data set on Plasma [11] was Active. Further, in the data set on Plasma [6], the result was inactive. Besides, the Ratio IC50 in the data set filed under Homo sapiens came to 100.
On to `CC(C)C[C@@H]1NC(=O)[C@H](Cc2ccc(O)cc2)NC(=O)CSC[C@@H](C(=O)N[C@@H](CCCNC(=N)N)C(=O)N[C@@H](CCCNC(=N)N)C(=O)N[C@@H](C)C(=O)N2CCC[C@H]2C(=O)N[C@@H](CC(N)=O)C(=O)N[C@@H](CO)C(N)=O)NC(=O)[C@H](CC(C)C)NC(=O)[C@H]([C@@H](C)O)NC(=O)[C@H](Cc2ccccc2)NC(=O)[C@H](CCCNC(=N)N)NC1=O` ({CH2CO}-YLRFTLCRRAPNS-NH2; thioether N-7), for which the EC50 in the data set with Plasma [1] was 1.4 µM. Also, the IC50 against Coagulation factor VII was greater than 100 µM; on Coagulation factor XII [2], 0.157 µM; at Coagulation factor XII [7] it was 0.097 µM; at Trypsin, 61 µM; against Plasminogen, 61 µM; against Plasma kallikrein, 43 µM. Besides, the IC50 was 35 µM on Coagulation factor X and greater than 100 µM in [10]. For the same compound, the result in the data set with Plasma [5] and with Plasma [11] was Active. For the same compound, the Ratio IC50 in the data set filed under Homo sapiens worked out at 100.
As to `CC(C)C[C@@H]1NC(=O)[C@H](Cc2ccc(O)cc2)NC(=O)CSC[C@@H](C(N)=O)NC(=O)CNC(=O)CNC(=O)[C@H](CCCNC(=N)N)NC(=O)[C@H](CC(=O)O)NC(=O)[C@H](CCCCN)NC(=O)[C@@H]2CCCN2C(=O)[C@H](CCCNC(=N)N)NC(=O)[C@H](Cc2ccccc2)NC(=O)[C@@H](CCCNC(=N)N)NC1=O`, the inhibition result in [12] was “inactive”.
As to `CC(C)C[C@@H]1NC(=O)[C@H](Cc2ccc(O)cc2)NC(=O)CSC[C@@H](C(N)=O)NC(=O)CNC(=O)CNC(=O)[C@H](CCC(N)=O)NC(=O)[C@H](CC(N)=O)NC(=O)[C@H]([C@@H](C)O)NC(=O)[C@@H]2CCCN2C(=O)[C@H](CCCCN)NC(=O)[C@H](CC(C)C)NC(=O)[C@H](CCCNC(=N)N)NC1=O` ({CH2CO}-YLRLKPTNQGGC-NH2; thioether N-12), the EC50 in the data set with Plasma [1] turned out to be 2.8 µM. Also, the IC50 on Coagulation factor VII was greater than 100 µM; on Coagulation factor XII [2] it was 0.611 µM; on Coagulation factor XII [7] it was 0.331 µM; against Trypsin, 12 µM; on Plasminogen, greater than 100 µM; against Plasma kallikrein, greater than 100 µM. Also, the IC50 (on Coagulation factor X; in data set [10]) was greater than 100 µM throughout. For the same compound, the inhibition entry in [3] was “Dose-Dependent Effect”. Further, the Stability entry in [4] is reported as “Stable”. Besides, the result in the data set with Plasma [6] was inactive. The result in the data set with Plasma [11] was Active.
For the compound Ac-YLRFR-NH2, in data set [13], the inhibition result was “inactive”.
